# According to ChEMBL document CHEMBL1201862, “PubChem BioAssay data set” (2004):
#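 96-well plates; 48 h exposure; 5 concentrations. Endpoints by linear interpolation between flanking doses. Not reached: highest tested concentration assigned. At the GI50, growth is halved.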 Calls of active or inactive are those of the source. Rule as the data show it: active = GI50 up to about 1.1 µM and inactive = higher.
# Legend:
# Test in all cases: NCI-60 cell line screen, 48 h
# NCI-H226 = test system: NCI-H226
# SK-OV-3 = test system: SK-OV-3
# OVCAR-8 = test system: OVCAR-8
# HOP-62 = test system: HOP-62
# LXFL 529 = test system: LXFL 529
# HCT-116 = test system: HCT-116
# SR = test system: SR
# TK-10 = test system: TK-10
# NCI-H23 = test system: NCI-H23
# SF-268 = test system: SF-268
# HT-29 = test system: HT-29
# CAKI-1 = test system: CAKI-1
# DMS-114 = test system: DMS-114
# K562 = test system: K562
# HCC 2998 = test system: HCC 2998
# COLO 205 = test system: COLO 205
# RXF 631 = test system: RXF 631
# HCT-15 = test system: HCT-15
# A549 = test system: A549
# RXF 393 = test system: RXF 393
# SW-620 = test system: SW-620
# SK-MEL-5 = test system: SK-MEL-5
# KM-20L2 = test system: KM-20L2
# EKVX = test system: EKVX
# U-251 = test system: U-251
# OVCAR-5 = test system: OVCAR-5
# Malme-3M = test system: Malme-3M
# OVCAR-3 = test system: OVCAR-3
# SNB-19 = test system: SNB-19
# CCRF-CEM = test system: CCRF-CEM
# IGROV-1 = test system: IGROV-1
# XF498 = test system: XF498
# MOLT-4 = test system: MOLT-4
# SF-295 = test system: SF-295
# M14 = test system: M14
# UO-31 = test system: UO-31
# HOP-92 = test system: HOP-92
# HOP-18 = test system: HOP-18
# SNB-78 = test system: SNB-78
# DLD-1 = test system: DLD-1
# M19-MEL = test system: M19-MEL
# HL-60 = test system: HL-60
# OVCAR-4 = test system: OVCAR-4
# LOX IMVI = test system: LOX IMVI
# A498 = test system: A498
# UACC-62 = test system: UACC-62
# ACHN = test system: ACHN
# KM12 = test system: KM12
# SNB-75 = test system: SNB-75
# NCI-H460 = test system: NCI-H460
# SN12C = test system: SN12C
# SK-MEL-2 = test system: SK-MEL-2
# 786-0 = test system: 786-0
# SF-539 = test system: SF-539
# NCI-H522 = test system: NCI-H522
# UACC-257 = test system: UACC-257
# DMS-273 = test system: DMS-273
# SK-MEL-28 = test system: SK-MEL-28
# RPMI-8226 = test system: RPMI-8226
smiles,measurement,setting,value
CCOC(=O)C1C(=O)CN2CCc3c([nH]c4ccccc34)C12C(=O)OCC (stereo not drawn),GI50,NCI-H226,> 100 µM (inactive)
same,GI50,SK-OV-3,> 100 µM (inactive)
same,GI50,OVCAR-8,> 100 µM (inactive)
same,GI50,HOP-62,> 100 µM (inactive)
same,GI50,LXFL 529,> 100 µM (inactive)
same,GI50,HCT-116,> 100 µM (inactive)
same,GI50,SR,> 100 µM (inactive)
same,GI50,TK-10,> 100 µM (inactive)
same,GI50,NCI-H23,> 100 µM (inactive)
same,GI50,SF-268,> 100 µM (inactive)
same,GI50,HT-29,> 100 µM (inactive)
same,GI50,CAKI-1,> 100 µM (inactive)
same,GI50,DMS-114,> 100 µM (inactive)
same,GI50,K562,> 100 µM (inactive)
same,GI50,HCC 2998,> 100 µM (inactive)
same,GI50,COLO 205,> 100 µM (inactive)
same,GI50,RXF 631,> 100 µM (inactive)
same,GI50,HCT-15,> 100 µM
same,GI50,A549,> 100 µM (inactive)
same,GI50,RXF 393,> 100 µM (inactive)
same,GI50,SW-620,> 100 µM (inactive)
same,GI50,SK-MEL-5,> 100 µM (inactive)
same,GI50,KM-20L2,> 100 µM (inactive)
same,GI50,EKVX,> 100 µM (inactive)
same,GI50,U-251,> 100 µM (inactive)
same,GI50,OVCAR-5,> 100 µM (inactive)
same,GI50,Malme-3M,> 100 µM (inactive)
same,GI50,OVCAR-3,> 100 µM (inactive)
same,GI50,SNB-19,> 100 µM (inactive)
same,GI50,CCRF-CEM,> 100 µM (inactive)
same,GI50,IGROV-1,> 100 µM (inactive)
same,GI50,XF498,> 100 µM (inactive)
same,GI50,MOLT-4,> 100 µM (inactive)
same,GI50,SF-295,> 100 µM (inactive)
same,GI50,M14,> 100 µM (inactive)
same,GI50,UO-31,> 100 µM (inactive)
same,GI50,HOP-92,> 100 µM (inactive)
same,GI50,HOP-18,72.8 µM (inactive)
same,GI50,SNB-78,> 100 µM (inactive)
same,GI50,DLD-1,> 100 µM (inactive)
same,GI50,M19-MEL,> 100 µM (inactive)
same,GI50,HL-60,> 100 µM (inactive)
same,GI50,OVCAR-4,> 100 µM (inactive)
same,GI50,LOX IMVI,> 100 µM (inactive)
same,GI50,A498,> 100 µM (inactive)
same,GI50,UACC-62,> 100 µM (inactive)
same,GI50,ACHN,> 100 µM (inactive)
same,GI50,KM12,> 100 µM (inactive)
same,GI50,SNB-75,> 100 µM (inactive)
same,GI50,NCI-H460,> 100 µM (inactive)
same,GI50,SN12C,> 100 µM (inactive)
same,GI50,SK-MEL-2,> 100 µM (inactive)
same,GI50,786-0,> 100 µM (inactive)
same,GI50,SF-539,> 100 µM (inactive)
same,GI50,NCI-H522,> 100 µM (inactive)
same,GI50,UACC-257,> 100 µM (inactive)
same,GI50,DMS-273,> 100 µM (inactive)
same,GI50,SK-MEL-28,> 100 µM (inactive)
O=[N+]([O-])c1ccc(Sc2c3ccccc3nc3cc(Cl)ccc23)cc1,GI50,NCI-H226,> 10 µM (inactive)
same,GI50,SK-OV-3,> 10 µM (inactive)
same,GI50,OVCAR-8,> 10 µM (inactive)
same,GI50,HOP-62,> 10 µM (inactive)
same,GI50,LXFL 529,> 10 µM (inactive)
same,GI50,HCT-116,> 10 µM (inactive)
same,GI50,SR,25.7 µM (inactive)
same,GI50,TK-10,> 10 µM (inactive)
same,GI50,SF-268,> 10 µM (inactive)
same,GI50,HT-29,> 100 µM (inactive)
same,GI50,CAKI-1,> 10 µM (inactive)
same,GI50,DMS-114,> 10 µM (inactive)
same,GI50,K562,> 10 µM (inactive)
same,GI50,HCC 2998,> 10 µM (inactive)
same,GI50,COLO 205,> 10 µM (inactive)
same,GI50,RXF 631,> 10 µM (inactive)
same,GI50,HCT-15,> 10 µM
same,GI50,RXF 393,37.5 µM (inactive)
same,GI50,SW-620,> 10 µM (inactive)
same,GI50,SK-MEL-5,> 10 µM (inactive)
same,GI50,KM-20L2,> 10 µM (inactive)
same,GI50,EKVX,> 10 µM (inactive)
same,GI50,U-251,> 10 µM (inactive)
same,GI50,OVCAR-5,> 10 µM (inactive)
same,GI50,Malme-3M,> 10 µM (inactive)
same,GI50,OVCAR-3,> 10 µM (inactive)
same,GI50,SNB-19,> 10 µM (inactive)
same,GI50,CCRF-CEM,32.9 µM (inactive)
same,GI50,IGROV-1,> 10 µM (inactive)
same,GI50,XF498,32.7 µM (inactive)
same,GI50,MOLT-4,34.4 µM (inactive)
same,GI50,SF-295,> 10 µM (inactive)
same,GI50,M14,> 10 µM (inactive)
same,GI50,UO-31,> 10 µM (inactive)
same,GI50,HOP-92,65.2 µM (inactive)
same,GI50,HOP-18,> 10 µM (inactive)
same,GI50,SNB-78,> 10 µM (inactive)
same,GI50,DLD-1,> 10 µM (inactive)
same,GI50,M19-MEL,> 10 µM (inactive)
same,GI50,HL-60,40.9 µM (inactive)
same,GI50,OVCAR-4,> 10 µM (inactive)
same,GI50,LOX IMVI,> 10 µM (inactive)
same,GI50,A498,> 10 µM (inactive)
same,GI50,UACC-62,> 10 µM (inactive)
same,GI50,ACHN,> 10 µM (inactive)
same,GI50,KM12,> 10 µM (inactive)
same,GI50,SNB-75,27.9 µM (inactive)
same,GI50,NCI-H460,> 10 µM (inactive)
same,GI50,SN12C,> 10 µM (inactive)
same,GI50,SK-MEL-2,> 10 µM (inactive)
same,GI50,786-0,> 10 µM (inactive)
same,GI50,SF-539,> 10 µM (inactive)
same,GI50,RPMI-8226,> 100 µM (inactive)
same,GI50,NCI-H522,> 10 µM (inactive)
same,GI50,UACC-257,> 10 µM (inactive)
same,GI50,SK-MEL-28,> 10 µM (inactive)
O=C(CC(=O)c1cccc2ccccc12)C(=O)Nc1ccc(Cl)cc1,GI50,NCI-H226,> 100 µM (inactive)
same,GI50,SK-OV-3,> 100 µM (inactive)
same,GI50,OVCAR-8,> 100 µM (inactive)
same,GI50,HOP-62,> 100 µM (inactive)
same,GI50,LXFL 529,> 100 µM (inactive)
same,GI50,HCT-116,> 100 µM (inactive)
same,GI50,TK-10,> 100 µM (inactive)
same,GI50,NCI-H23,> 100 µM (inactive)
same,GI50,SF-268,> 100 µM (inactive)
same,GI50,HT-29,> 100 µM (inactive)
same,GI50,CAKI-1,> 100 µM (inactive)
same,GI50,DMS-114,> 100 µM (inactive)
same,GI50,K562,> 100 µM (inactive)
same,GI50,HCC 2998,> 100 µM (inactive)
same,GI50,COLO 205,> 100 µM (inactive)
same,GI50,RXF 631,> 100 µM (inactive)
same,GI50,HCT-15,> 100 µM
same,GI50,A549,> 100 µM (inactive)
same,GI50,SW-620,> 100 µM (inactive)
same,GI50,SK-MEL-5,> 100 µM (inactive)
same,GI50,KM-20L2,> 100 µM (inactive)
same,GI50,EKVX,> 100 µM (inactive)
same,GI50,U-251,> 100 µM (inactive)
same,GI50,OVCAR-5,> 100 µM (inactive)
same,GI50,Malme-3M,> 100 µM (inactive)
same,GI50,OVCAR-3,> 100 µM (inactive)
same,GI50,SNB-19,> 100 µM (inactive)
same,GI50,CCRF-CEM,> 100 µM (inactive)
same,GI50,IGROV-1,> 100 µM (inactive)
same,GI50,XF498,> 100 µM (inactive)
same,GI50,MOLT-4,> 100 µM (inactive)
same,GI50,SF-295,> 100 µM (inactive)
same,GI50,M14,> 100 µM (inactive)
same,GI50,UO-31,> 100 µM (inactive)
same,GI50,HOP-92,19.6 µM (inactive)
same,GI50,HOP-18,> 100 µM (inactive)
same,GI50,SNB-78,> 100 µM (inactive)
same,GI50,DLD-1,> 100 µM (inactive)
same,GI50,M19-MEL,> 100 µM (inactive)
same,GI50,HL-60,> 100 µM (inactive)
same,GI50,OVCAR-4,> 100 µM (inactive)
same,GI50,LOX IMVI,> 100 µM (inactive)
same,GI50,A498,> 100 µM (inactive)
same,GI50,UACC-62,> 100 µM (inactive)
same,GI50,ACHN,> 100 µM (inactive)
same,GI50,KM12,> 100 µM (inactive)
same,GI50,NCI-H460,> 100 µM (inactive)
same,GI50,SN12C,> 100 µM (inactive)
same,GI50,786-0,> 100 µM (inactive)
same,GI50,SF-539,> 100 µM (inactive)
same,GI50,RPMI-8226,> 100 µM (inactive)
same,GI50,NCI-H522,> 100 µM (inactive)
same,GI50,UACC-257,> 100 µM (inactive)
same,GI50,DMS-273,> 100 µM (inactive)
